In ChEMBL document CHEMBL1132654 (J Med Chem, 1999) one finds IC50 data, which are given here for one compound.

One assay deals with Integrin alpha-V/beta-3 (Homo sapiens, UniProt P05106+P06756). The assay is described as follows: Inhibition of Vitronectin receptor (alpha V beta 3) binding to vitronectin.
The target in assay [1] is Integrin alpha-IIb/beta-3 (Homo sapiens, UniProt P05106+P08514). The assay is described as follows: Inhibition of alpha IIb beta-3 integrin binding to fibrinogen. Type of assay: protein-complex assay.
Integrin alpha-IIb/beta-3, sequence (P05106 27-788 limits assumed): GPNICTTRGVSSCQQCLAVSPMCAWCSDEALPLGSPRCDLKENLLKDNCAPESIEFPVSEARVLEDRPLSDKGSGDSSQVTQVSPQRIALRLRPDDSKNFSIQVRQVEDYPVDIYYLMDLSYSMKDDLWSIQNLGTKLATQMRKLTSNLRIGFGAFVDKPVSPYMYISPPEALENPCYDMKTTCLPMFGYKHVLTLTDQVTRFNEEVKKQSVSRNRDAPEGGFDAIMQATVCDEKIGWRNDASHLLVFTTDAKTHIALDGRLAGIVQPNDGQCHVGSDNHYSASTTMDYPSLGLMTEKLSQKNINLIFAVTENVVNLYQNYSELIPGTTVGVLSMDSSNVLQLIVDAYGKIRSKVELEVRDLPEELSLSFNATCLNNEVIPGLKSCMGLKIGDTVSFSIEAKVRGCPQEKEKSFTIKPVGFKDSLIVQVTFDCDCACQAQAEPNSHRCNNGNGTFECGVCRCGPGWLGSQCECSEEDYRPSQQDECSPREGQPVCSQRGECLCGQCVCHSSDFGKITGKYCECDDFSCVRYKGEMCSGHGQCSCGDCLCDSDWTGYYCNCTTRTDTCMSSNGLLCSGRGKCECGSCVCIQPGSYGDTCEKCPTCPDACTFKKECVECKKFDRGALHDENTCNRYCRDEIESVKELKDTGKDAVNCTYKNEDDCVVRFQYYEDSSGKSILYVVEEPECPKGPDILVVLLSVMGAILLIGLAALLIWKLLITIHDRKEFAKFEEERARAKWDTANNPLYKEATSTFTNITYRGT
Integrin alpha-IIb/beta-3, sequence (P08514 32-887 limits assumed): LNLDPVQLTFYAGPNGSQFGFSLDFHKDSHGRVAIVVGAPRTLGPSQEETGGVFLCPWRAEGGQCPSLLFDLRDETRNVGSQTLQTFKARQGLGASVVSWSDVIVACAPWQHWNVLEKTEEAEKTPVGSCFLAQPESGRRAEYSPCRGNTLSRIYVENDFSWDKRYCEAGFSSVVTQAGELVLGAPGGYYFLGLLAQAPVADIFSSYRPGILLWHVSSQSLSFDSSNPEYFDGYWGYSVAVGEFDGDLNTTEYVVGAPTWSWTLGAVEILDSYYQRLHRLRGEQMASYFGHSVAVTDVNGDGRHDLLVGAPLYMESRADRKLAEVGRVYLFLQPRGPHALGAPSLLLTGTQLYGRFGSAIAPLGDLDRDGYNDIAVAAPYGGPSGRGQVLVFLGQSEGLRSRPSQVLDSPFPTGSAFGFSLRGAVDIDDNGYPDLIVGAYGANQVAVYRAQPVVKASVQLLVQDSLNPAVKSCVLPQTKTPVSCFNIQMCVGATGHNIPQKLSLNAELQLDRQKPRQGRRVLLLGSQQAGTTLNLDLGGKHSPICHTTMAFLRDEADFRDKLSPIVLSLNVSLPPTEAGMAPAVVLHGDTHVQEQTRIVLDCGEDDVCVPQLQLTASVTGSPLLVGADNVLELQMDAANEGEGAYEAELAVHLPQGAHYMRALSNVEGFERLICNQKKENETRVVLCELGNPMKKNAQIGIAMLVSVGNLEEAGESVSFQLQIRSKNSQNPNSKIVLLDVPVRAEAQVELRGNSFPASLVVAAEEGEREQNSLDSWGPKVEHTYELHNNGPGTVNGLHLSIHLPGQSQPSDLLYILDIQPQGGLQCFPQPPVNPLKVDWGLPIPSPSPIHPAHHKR
Integrin alpha-IIb/beta-3, sequence (P08514 891-1039 limits assumed): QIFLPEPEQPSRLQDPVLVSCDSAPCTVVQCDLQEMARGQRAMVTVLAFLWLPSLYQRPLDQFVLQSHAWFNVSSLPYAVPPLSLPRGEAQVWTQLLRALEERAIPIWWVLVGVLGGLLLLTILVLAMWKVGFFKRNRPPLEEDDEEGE

Integrin alpha-V/beta-3, sequence (P05106 27-788 limits assumed): as the sequence (P05106 27-788 limits assumed) above
Integrin alpha-V/beta-3, sequence (P06756 31-889 limits assumed): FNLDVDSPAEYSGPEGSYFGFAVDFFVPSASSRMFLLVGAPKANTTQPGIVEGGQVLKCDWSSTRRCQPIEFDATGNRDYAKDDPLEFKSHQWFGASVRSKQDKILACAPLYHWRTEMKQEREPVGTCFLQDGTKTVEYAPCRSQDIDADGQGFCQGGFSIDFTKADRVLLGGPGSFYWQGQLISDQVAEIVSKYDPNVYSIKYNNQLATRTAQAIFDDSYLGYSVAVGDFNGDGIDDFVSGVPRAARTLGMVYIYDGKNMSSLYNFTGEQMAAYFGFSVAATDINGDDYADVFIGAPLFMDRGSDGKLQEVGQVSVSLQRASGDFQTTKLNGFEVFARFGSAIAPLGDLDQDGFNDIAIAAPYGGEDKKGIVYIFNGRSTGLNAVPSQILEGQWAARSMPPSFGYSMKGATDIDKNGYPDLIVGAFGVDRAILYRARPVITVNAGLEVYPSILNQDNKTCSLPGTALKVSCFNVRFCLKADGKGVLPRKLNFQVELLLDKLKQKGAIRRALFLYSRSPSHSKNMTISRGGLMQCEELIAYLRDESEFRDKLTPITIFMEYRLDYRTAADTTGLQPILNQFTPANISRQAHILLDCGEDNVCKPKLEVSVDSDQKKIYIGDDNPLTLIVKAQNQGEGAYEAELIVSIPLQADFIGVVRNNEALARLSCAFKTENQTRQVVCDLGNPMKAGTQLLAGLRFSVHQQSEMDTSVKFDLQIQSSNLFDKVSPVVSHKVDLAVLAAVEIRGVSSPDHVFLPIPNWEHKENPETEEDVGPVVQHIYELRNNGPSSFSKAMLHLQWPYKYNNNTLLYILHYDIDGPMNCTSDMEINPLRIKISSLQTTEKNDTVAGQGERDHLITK
Integrin alpha-V/beta-3, sequence (P06756 891-1048 limits assumed): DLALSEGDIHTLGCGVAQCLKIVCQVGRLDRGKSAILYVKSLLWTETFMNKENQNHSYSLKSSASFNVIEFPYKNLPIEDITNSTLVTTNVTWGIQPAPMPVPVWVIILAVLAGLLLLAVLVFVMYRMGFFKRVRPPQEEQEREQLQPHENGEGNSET

With `NCCCC[C@H](NC(=O)[C@@H]1CCCN1C(=O)[C@H](CO)NC(=O)[C@H](CC(=O)O)NC(=O)CNC(=O)[C@H](CCCN=C(N)N)NC(=O)CN)C(=O)O`, the IC50 was 210 nM on Integrin alpha-V/beta-3 and 1700 nM in assay [1].

As a reminder, the IC50 is the midpoint of a concentration-inhibition curve. Low readings indicate greater potency in that assay, high ones weaker potency in that assay.
